Here are results for 2 compounds from US20070036737A1, “PRODUCTS FOR TOPICAL A[…] LYSOPHO[…] FATTY ACIDS” (priority 2005, published 2007).

The test system of this assay is neuromuscular junction. The assay is described as follows: inhibition of the ex-vivo neuromuscular junction preparation (FIG. 1). Further details: species or system mouse. Particulars: single molecule alone. The source says:
The Applicants arrived at the results of the present invention in the course of their studies on the mechanism of action of snake presynaptic PLA2 neurotoxins. These presynaptic neurotoxins are major components of the venom of many poisonous snakes. Starting from: a) the established fact that these neurotoxins are endowed with a phospholipase A2 (PLA2) activity and that such activity leads to the production of LysoPLs and FAs following the hydrolysis of the fatty acid ester bond in position 2 of phospholipids (4); b) the fact that lysophospholipids and fatty acids in the appropriate membrane localization favor membrane fusion and inhibit membrane fission (5), and that c) such biological activities would lead to the depletion of synaptic vesicles from nerve terminals, as the one observed by electron microscopy upon exposure to the snake presynaptic PLA2 neurotoxins (6,7), the Applicants decided to test the effect of a mixture of lysophospholipids and fatty acids on the neuromuscular junction both in an ex-vivo preparation and in an in-vivo system.
Similar data were obtained with other lysoPLs varying with respect to R and/or with respect to R′. […] In other words, the two molecules act in a synergistic mode and this is at the very basis of the present patent. […]

Turning to `CCCCCCCC/C=C\CCCCCCCC(=O)O` [OA, oleic acid], the “inhibition of the neuromuscular junction” value is given as “unable to elicit a substantial inhibition”.
The same measure for `CCCCCCCCCCCCCC(=O)OC[C@@H](O)COP(=O)([O-])OCC[N+](C)(C)C` [lysoPC, 1-Myristoyl-sn-glycero-3-phosphocholine]: “unable to elicit a substantial inhibition”.
